Assay results as given in US20260165323A1, “USE OF STROBILURIN TYPE COMPOUNDS FOR COMBATING PHYTOPATHOGENIC FUNGI CONTAINING AN AMINO ACID SUBSTITUTION F129L IN THE MITOCHONDRIAL CYTOCHROME B PROTEIN CONFERRING RESISTANCE TO QO […]” (priority 2022, published 2026).

How the values were obtained:
Assay type in all cases: in vivo
[1] = tested on: Phakopsora pachyrhizi containing the amino acid substitution F129L in the mitochondrial cytochrome b protein; experiment: Use Example 1: protective control of soybean rust on soybeans (PHAKPA P2); conditions: inoculated 2 days after spraying, % diseased leaf area
Procedure: (§1) The compound was dissolved in a mixture of acetone and/or dimethylsulfoxide and the wetting agent/emulsifier Wettol, which is based on ethoxylated alkylphenoles, in a ratio (volume) solvent-emulsifier of 99 to 1 to give a total volume of 5 ml. Subsequently, water was added to total volume of 100 ml. This stock solution was then diluted with the described solvent-emulsifier-water mixture to the final concentration given in the tables below.
Use Example 1. Protective Control of Soybean Rust on Soybeans Caused by Phakopsora pachyrhizi (PHAKPA P2)
(§2) Leaves of potted soybean seedlings were sprayed to run-off with the previously described spray solution, containing the concentration of active ingredient or their mixture as described below. The plants were allowed to air-dry. The trial plants were cultivated for 2 days in a greenhouse chamber at 23-27° C. and a relative humidity between 60 and 80%. Then the plants were inoculated with spores of Phakopsora pachyrhizi. The strain used contains the amino acid substitution F129L in the mitochondrial cytochrome b protein conferring resistance to Qo inhibitors. To ensure the success the artificial inoculation, the plants were transferred to a humid chamber with a relative humidity of about 95% and 20 to 24° C. for 24 hr. The trial plants were cultivated for up to 14 days in a greenhouse chamber at 23 to 27° C. and a relative humidity between 60 and 80%. The extent of fungal attack on the leaves was visually assessed as % diseased leaf area, the disease level of untreated controls was usually higher than 85%.

[2] = tested on: Phakopsora pachyrhizi containing the amino acid substitution F129L in the mitochondrial cytochrome b protein; experiment: Use Example 2: protective control of soybean rust on soybeans (PHAKPA P6); conditions: inoculated six days after spraying, % diseased leaf area
Procedure: as §1
Use Example 2. Protective Control of Soybean Rust on Soybeans Caused by Phakopsora Pachyrhizi (PHAKPA P6)
as §2, with “active ingredient as described” for “active ingredient or their mixture as described”, “cultivated for six days in” for “cultivated for 2 days in”, “95% and 23 to 27°” for “95% and 20 to 24°”, “23 to 27° C. for” for “20 to 24° C. for”

Puccinia recondita [3] = experiment: Use Example 3: curative control of brown rust on wheat (PUCCRT K4); conditions: % diseased leaf area
Procedure: as §1
Use Example 3. Curative Control of Brown Rust on Wheat Caused by Puccinia recondita (PUCCRT K4)
The first two developed leaves of potted wheat seedling were dusted with spores of Puccinia recondita. To ensure the success the artificial inoculation, the plants were transferred to a humid chamber without light and a relative humidity of 95 to 99% and 20 to 24° C. for 24 h. The next 3 days the plants were cultivated in a greenhouse chamber at 20 to 24° C. and a relative humidity between 65 and 70%. Then the plants were sprayed to run-off with previously described spray solution, containing the concentration of active ingredient or their mixture as described below. The plants were allowed to air-dry. Then the trial plants were cultivated for 5 to 7 days in a greenhouse chamber at 20 to 24° C. and a relative humidity between 65 and 70%. The extent of fungal attack on the leaves was visually assessed as % diseased leaf area, the disease level of untreated controls was usually between 80 and 100%.

Puccinia recondita [4] = experiment: Use Example 4: preventative control of brown rust on wheat (PUCCRT P7); conditions: inoculated seven days after spraying, % diseased leaf area
Procedure: as §1
Use Example 4. Preventative Control of Brown Rust on Wheat Caused by Puccinia recondita (PUCCRT P7)
The first two developed leaves of potted wheat seedling were sprayed to run-off with previously described spray solution, containing the concentration of active ingredient or their mixture as described below. Seven days later the plants were dusted with spores of Puccinia recondita. To ensure the success of the artificial inoculation, the plants were transferred to a humid chamber without light and a relative humidity of 95 to 99% and 20 to 24° C. for 24 h. Then the trial plants were cultivated for 9 to 11 days in a greenhouse chamber at 20 to 24° C. and a relative humidity between 65 and 70%. The extent of fungal attack on the leaves was visually assessed as % diseased leaf area, the disease level of untreated controls was usually between 80 and 100%.

SMILES	% PHAKPA (F129L) Disease level P2 at 4 ppm [1] [%]	% PHAKPA (F129L) Disease level P2 at 16 ppm [1] [%]	% PHAKPA (F129L) Disease level P6 at 4 ppm [2] [%]	% PHAKPA (F129L) Disease level P6 at 16 ppm [2] [%]	% PUCCRT Disease level K4 at 4 ppm (Puccinia recondita [3]) [%]	% PUCCRT Disease level K4 at 16 ppm (Puccinia recondita [3]) [%]	% PUCCRT Disease level P7 at 4 ppm (Puccinia recondita [4]) [%]	% PUCCRT Disease level P7 at 16 ppm (Puccinia recondita [4]) [%]
CCOC/C(=N\OCc1c(Cl)cccc1/C(=N\OC)C(=O)OC)c1ccc(Cl)cc1 [compound 44]	95	55	80	68	75	73	77	37
CO/C=C(/C(=O)OC)c1cccc(Cl)c1CO/N=C(\COC)c1ccc(F)cc1Cl [compound 93]	13	1	43	15	83	19	53	16
CCOC/C(=N\OCc1c(Cl)cccc1/C(=N\OC)C(=O)NC)c1ccccc1 [compound 55]	37	1	40	9	77	47	53	29
CO/C=C(/C(=O)OC)c1cccc(Cl)c1CO/N=C(\COC)c1ccc(Cl)c(F)c1 [compound 110]	1	0	15	0	70	4	41	3
CO/C=C(/C(=O)OC)c1cccc(Cl)c1CO/N=C(\COC)c1cc(Cl)ccc1F [compound 105]	18	2	13	0	42	5	44	4
CNC(=O)/C(=N/OC)c1cccc(Cl)c1CO/N=C(\COC)c1ccc(Cl)c(Cl)c1 [compound 69]	43	7	15	1	33	3	7	3
CNC(=O)/C(=N/OC)c1cccc(Cl)c1CO/N=C(\COC)c1ccc(F)c(F)c1 [compound 97]	3	0	17	1	9	3	23	4
CO/C=C(/C(=O)OC)c1cccc(Cl)c1CO/N=C(\COC)c1ccccc1C [compound 123]	41	2	38	7	72	21	77	33
CCOC/C(=N\OCc1c(Cl)cccc1/C(=N\OC)C(=O)OC)c1ccccc1 [compound 53]	88	57	93	80	83	78	87	78
CNC(=O)/C(=N/OC)c1cccc(Cl)c1CO/N=C(\COC)c1cccc(C#N)c1 [compound 117]	59	5	34	8	18	0	14	1
CCOC/C(=N\OCc1c(Cl)cccc1/C(=N\OC)C(=O)NC)c1cccc(Cl)c1 [compound 40]	15	1	33	4	73	40	30	4
CNC(=O)/C(=N/OC)c1cccc(Cl)c1CO/N=C(\COC)c1ccc(F)cc1F [compound 84]	5	0	2	0	58	9	35	5
CO/C=C(/C(=O)OC)c1cccc(Cl)c1CO/N=C(\COC)c1cc(F)cc(F)c1 [compound 80]	5	0	0	0	30	0	5	3
CO/C=C(/C(=O)OC)c1cccc(Cl)c1CO/N=C(\COC)c1ccc(Cl)cc1F [compound 106]	14	1	8	1	28	4	19	2
CCOC/C(=N\OCc1c(Cl)cccc1/C(=N\OC)C(=O)NC)c1cccc(F)c1 [compound 42]	11	0	32	4	70	42	62	12
CNC(=O)/C(=N/OC)c1cccc(Cl)c1CO/N=C(\COC)c1ccccc1F [compound 21]	7	0	16	1	63	28	33	6
